The results in this text go back to PMC7221589, “Development of a Rapid Mass Spectrometric Determination of AMP and Cyclic AMP for PDE3 Activity Study: Application and Computational Analysis for Evaluating the Effect of a Novel 2-oxo-1,2-dihydropyridine-3-carbonitrile Derivative as PDE-3 Inhibitor” (Molecules, 2020).

The assay has as its target PDE3A (phosphodiesterase enzyme 3A) (Homo sapiens, UniProt Q14432). The assay is described as follows: MS/MS assay of cAMP hydrolysis to AMP by purchased PDE3A, dose-response. It is filed as biochemical.

Usually IC50 stands for the concentration needed to halve the response being measured. Read a low IC50 as greater potency.

Chain of PDE3A (phosphodiesterase enzyme 3A) (Q14432 whole entry): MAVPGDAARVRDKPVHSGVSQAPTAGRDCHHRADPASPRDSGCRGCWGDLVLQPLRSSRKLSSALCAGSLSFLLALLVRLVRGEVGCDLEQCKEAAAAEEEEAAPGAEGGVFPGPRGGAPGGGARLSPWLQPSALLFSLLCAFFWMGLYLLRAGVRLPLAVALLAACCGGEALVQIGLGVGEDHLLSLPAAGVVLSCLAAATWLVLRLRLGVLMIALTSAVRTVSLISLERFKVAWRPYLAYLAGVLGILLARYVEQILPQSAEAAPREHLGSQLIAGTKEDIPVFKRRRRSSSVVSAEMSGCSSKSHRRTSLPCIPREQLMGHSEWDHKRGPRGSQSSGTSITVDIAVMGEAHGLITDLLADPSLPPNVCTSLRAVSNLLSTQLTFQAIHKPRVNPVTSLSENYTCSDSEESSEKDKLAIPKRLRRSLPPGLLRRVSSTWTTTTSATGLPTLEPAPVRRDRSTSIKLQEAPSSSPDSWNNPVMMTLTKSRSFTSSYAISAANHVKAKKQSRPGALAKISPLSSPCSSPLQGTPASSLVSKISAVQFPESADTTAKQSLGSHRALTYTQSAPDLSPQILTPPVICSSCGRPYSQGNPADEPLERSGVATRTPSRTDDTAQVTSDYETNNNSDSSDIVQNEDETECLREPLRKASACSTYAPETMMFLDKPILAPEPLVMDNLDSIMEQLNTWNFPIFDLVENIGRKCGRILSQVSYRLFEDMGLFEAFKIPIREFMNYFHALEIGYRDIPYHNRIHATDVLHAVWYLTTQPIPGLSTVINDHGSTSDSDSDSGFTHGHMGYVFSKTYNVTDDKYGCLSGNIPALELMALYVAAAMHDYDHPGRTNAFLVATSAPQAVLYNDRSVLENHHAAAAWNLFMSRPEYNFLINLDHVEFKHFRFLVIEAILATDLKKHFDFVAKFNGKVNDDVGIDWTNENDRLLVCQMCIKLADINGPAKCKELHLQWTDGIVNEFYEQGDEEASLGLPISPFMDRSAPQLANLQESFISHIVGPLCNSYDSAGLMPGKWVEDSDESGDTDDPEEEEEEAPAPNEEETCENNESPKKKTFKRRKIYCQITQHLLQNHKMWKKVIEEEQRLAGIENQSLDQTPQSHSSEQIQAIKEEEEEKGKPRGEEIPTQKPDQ

For the molecule `CCOC(=O)N1CCC(NC(=O)c2cc(C#N)c(=O)[nH]c2C)CC1` [DF492], the 50% inhibitory concentration (IC50) came out at 410 nM.
